According to patent EP2490021A1, “Modulators of PRR and GPCR signalling” (Biotempt B.V., priority 2011, dated 2012):
Entries after “also recorded” stand apart in the source; their conditions may differ. Where a SMILES comes first, the peptide text is derived from it.

Experiments:
Type in all cases: cell-based, human
[1] = tested on: TLR-4; assay: PKB phosphorylation in hPBMC challenged with LPS (Example 4); details: 2 µg/ml LPS
Method: (§1) Subsequently PMBC were incubated with 1.3, 3.2, 8, 20 and 50 ng/ml peptide AQGV , LQGV, AQG, LQG, QGV, AQ, LQ, GV or QG (peptide, which was freshly prepared as a 20 mg/ml stock solution in bidistilled water) or treated with the cell culture medium alone for 10 min.
(§2) hPMBC were challenged with 2 µg/ml TLR-4 ligand LPS for 1 min, 5 min, 10 min and 20 min.

[2] = tested on: TLR-4; assay: Kinase phosphorylation in PBMC-derived monocytes challenged with TLR-4 ligand LPS; details: 2 µg/ml LPS, at 20 ng/ml and at 50 ng/ml
Method: (§3) PMBC-derived monocytes were isolated from healthy volunteers (hPBMCs) according to routine procedures^1. […]
(§4) Following stimulation, the phosphorylation status of p38MAPK, JNK, PKB, and P42/p44MAPK/ERK1,2 was analysed^3. Results were corrected for differences using co-measurement of β-actin^4.

[3] = tested on: neutrophils; assay: Phosphoprotein array, LPS-stimulated neutrophils; details: 1 µg/mL LPS, pre-stimulated with 20 ng/mL
Method: (§5) Blood was drawn from healthy volunteers into tubes containing citrate as an anticoagulant. Neutrophils were isolated by using a Polymorphprep kit (Nicomed, Oslo, Norway) according to the manufacturer's instructions; monocytes were purified with magnetic beads (Miltenyi Biotech). The purity of the cells, as assessed by flow cytometry (anti-CD45, 14, DR, and CD66b), was > 93%. For each cell type, samples from two different donors were examined.
(§6) 5x10^6 cells were incubated in the presence of 1 µg/mL LPS (E.coli O111:B4, Sigma-Aldrich) or pre-stimulated with 20 ng/mL of EA-230 (peptide AQGV) and then incubated in the presence of 1 µg/mL LPS for 0, 5, 15 and 30 minutes (37°C, 5% CO2). At the end of the incubation period, the cells were put on ice, and proteins were extracted using Phosphosafe reagent (Novagen), according to the recommendations of the manufacturer. The total protein concentration was measured using a conventional Lowry assay (Pierce).
(§7) To determine the relative levels of protein phosphorylation, a human PhosphoKinase array (RnD Systems) was used according to the recommendations of the manufacturer. 200 µg of protein were used per array. Spot pixel density was determined for each protein and ratios to the controls (no LPS and no EA stimulation) were measured.

[4] = tested on: NOD; assay: Kinase phosphorylation in PBMC-derived monocytes challenged with NOD ligand peptidoglycan; details: 2 µg/ml PGN, at 50 ng/ml
Method: as §3, §4

[5] = tested on: neutrophils; assay: LPS-driven cytokine production by neutrophils; details: 1 µg/mL LPS 24 hours, both concentrations (20 or 50 ng/mL), p=0.01 versus LPS
Method: (§8) Blood was drawn from 2 healthy volunteers into tubes containing citrate as an anticoagulant. Neutrophils were isolated by using a Polymorphprep kit (Nicomed, Oslo, Norway) according to the manufacturer's instructions. The purity of the cells, as assessed by flow cytometry (anti-CD45, 14, DR, and CD66b), was > 93%.
5x10^5 cells were incubated in the presence of 1 µg/mL LPS (E.coli O111:B4, Sigma-Aldrich) or pre-stimulated with 20 or 50 ng/mL of EA-230 (peptide AQGV) and then incubated in the presence of 1 µg/mL LPS for 24 hours (37°C, 5% CO2). At the end of the incubation period, supernatants were harvested and concentrations of TNF-α, IL-6, and IL-8 were measured by flow cytometry using Bender Flowcytomics kit (Bender Med systems, Burlingame, USA) according to the recommendations of the manufacturer. Concentrations of IL-10 were determined by ELISA (RnD Systems). Measurements were done in duplicate.

[6] = tested on: TLR-4; assay: p38 MAPK phosphorylation in hPBMC challenged with LPS (Example 4); details: 2 µg/ml LPS; for p38 MAPK phosphorylation: low concentrations of peptide, compared to control (LPS stimulated, no peptide added); for TLR-4 mediated signalling induced by LPS, p38 MAPK phosphorylation status: peptide at 20 ng/ml
Method: as §1, §2

[7] = tested on: FPR; assay: Kinase phosphorylation in PBMC-derived monocytes challenged with fMLP; details: 1 µM fmlp, at both 20 ng/ml and 50 ng/ml
Method: PMBC-derived monocytes were isolated from healthy volunteers (hPBMCs) according to routine procedures^1. Subsequently PMBC were incubated with 20 ng/ml peptide AQGV (Biotempt peptide, which was freshly prepared as a 20 mg/ml stock solution in bidistilled water) or treated with the cell culture medium alone for 10 min. hPMBC were challenged with: • 1) 2 µg/ml TLR-4 ligand LPS ^2 for 1 min, 5 min, 10 min and 20 min, • 2) 2 µg/ml NOD ligand peptidoglycan (PGN) for 1 min, 5 min, 10 min and 20 min, or • 3) 1 µM fmlp (formyl-Met-Leu-Phe) for 1 min, 5 min, 10 min and 20 min.
as §4

[8] = tested on: NF-kB; assay: NF-kB p50 and p65 subunit activity ELISA, LPS-stimulated neutrophils; details: 1 µg/mL LPS 15 minutes, both concentrations, p=0.03 vs LPS alone
Method: as §8
[…] At the end of the incubation period, the cells were put on ice, and nuclear proteins were extracted using Nuclear Extraction Kit (Cayman chemicals, Ann Harbor, USA), according to the recommendations of the manufacturer. The total protein concentration was measured using a conventional Lowry assay (Pierce).
P50 and p65 NF-kB subunit activity was determined by ELISA (Cayman chemicals). This assay allows the determination of the true NF-kB activity by measuring the binding of its subunits to specific consensus sequences. This assay is similar to the traditional EMSA, though more sensitive. 10 µg of proteins were used per assay. Analysis was performed in duplicate.

[9] = tested on: monocytes; assay: Phosphoprotein array, LPS-stimulated monocytes; details: 1 µg/mL LPS, pre-incubation with 20 ng/mL
Method: as §5, §6, §7

[10] = low concentrations, i.e. below 20 ng/ml, compared to control (LPS stimulated, no peptide added)

CC(C)[C@H](NC(=O)CNC(=O)[C@H](CCC(N)=O)NC(=O)[C@H](C)N)C(=O)O [AQGV] (H-AQGV-OH)
TLR-4 mediated signalling induced by LPS, PKB phosphorylation status [1, 10]: already display a modulation | TLR-4 mediated signalling induced by LPS, PKB phosphorylation status ([1]; peptide at 20 ng/ml): reduced | TLR-4 mediated signalling induced by LPS, JNK phosphorylation status [2]: reduced | TLR-4 mediated signalling induced by LPS, P42/p44MAPK/ERK1,2 phosphorylation status [2]: reduced | TLR-4 mediated signalling induced by LPS, PKB phosphorylation status [2]: reduced | TLR-4 mediated signalling induced by LPS, p38MAPK phosphorylation status [2]: reduced | eNOS phosphorylation [3]: increase | LPS-driven phosphorylation of CREB ([3]; at 15 minutes): blunted | LPS-driven phosphorylation of ERK1/2 ([3]; at 15 minutes): blunted | LPS-driven phosphorylation of GSK 3a/b ([3]; at 15 minutes): blunted | LPS-driven phosphorylation of MEK1/2 ([3]; at 15 minutes): blunted | LPS-driven phosphorylation of P38 MAPK ([3]; at 15 minutes): blunted | NOD-signalling induced by peptidoglycan, JNK phosphorylation status [4]: seemingly stimulates | NOD-signalling induced by peptidoglycan, P42/p44MAPK/ERK1,2 phosphorylation status [4]: seemingly stimulates | NOD-signalling induced by peptidoglycan, PKB phosphorylation status [4]: seemingly stimulates | NOD-signalling induced by peptidoglycan, p38MAPK phosphorylation status [4]: seemingly stimulates | LPS induced production of IL-6 [5]: reduced the cytokine production almost to control values | LPS induced production of IL-8 [5]: reduced the cytokine production almost to control values | LPS induced production of IL-10 [5]: reduced the cytokine production almost to control values | LPS induced production of TNF-α [5]: reduced the cytokine production almost to control values | p38 MAPK phosphorylation [6]: already modulated | TLR-4 mediated signalling induced by LPS, p38 MAPK phosphorylation status [6]: initial downregulation | FPR signalling induced by fMLP [7]: slightly attenuated | FPR signalling induced by fMLP, PKB phosphorylation [7]: induction of PKB phosphorylation was initially seen, followed by downregulation | FPR signalling induced by fMLP, p38MAPK phosphorylation [7]: downregulation | LPS induced NF-kB p50 activity [8]: reduced this LPS induced activation | LPS induced NF-kB p65 activity [8]: reduced this LPS induced activation | eNOS phosphorylation [9]: strongly stimulated | LPS-driven phosphorylation of AMPK ([9]; at 15 minutes): prevented this effect | LPS-driven phosphorylation of ERK1/2 ([9]; at 15 minutes): prevented this effect | LPS-driven phosphorylation of JNK ([9]; at 15 minutes): prevented this effect | LPS-driven phosphorylation of MSK ([9]; at 15 minutes): prevented this effect | LPS-driven phosphorylation of P38 MAPK ([9]; at 15 minutes): prevented this effect | LPS-driven phosphorylation of PKB/AKT ([9]; at 15 minutes): prevented this effect

C[C@H](N)C(=O)N[C@@H](CCC(N)=O)C(=O)O [AQ] (H-Ala-Gln-OH)
TLR-4 mediated signalling induced by LPS, PKB phosphorylation status [1, 10]: already display a modulation | TLR-4 mediated signalling induced by LPS, PKB phosphorylation status ([1]; peptide at 20 ng/ml): inhibited | p38 MAPK phosphorylation [6]: already modulated | TLR-4 mediated signalling induced by LPS, p38 MAPK phosphorylation status [6]: slight overall downregulation

CC(C)C[C@H](N)C(=O)N[C@@H](CCC(N)=O)C(=O)NCC(=O)N[C@H](C(=O)O)C(C)C [LQGV] (H-LQGV-OH)
TLR-4 mediated signalling induced by LPS, PKB phosphorylation status ([1]; peptide at 20 ng/ml): reduced; also recorded: significantly downregulated | p38 MAPK phosphorylation [6]: already modulated | TLR-4 mediated signalling induced by LPS, p38 MAPK phosphorylation status [6]: initial downregulation

CC(C)C[C@H](N)C(=O)N[C@@H](CCC(N)=O)C(=O)NCC(=O)O [LQG] (H-Leu-Gln-Gly-OH)
p38 MAPK phosphorylation [6]: already modulated | TLR-4 mediated signalling induced by LPS, p38 MAPK phosphorylation status [6]: initial downregulation

CC(C)C[C@H](N)C(=O)N[C@@H](CCC(N)=O)C(=O)O [LQ] (H-Leu-Gln-OH)
TLR-4 mediated signalling induced by LPS, PKB phosphorylation status [1, 10]: already display a modulation | TLR-4 mediated signalling induced by LPS, PKB phosphorylation status ([1]; peptide at 20 ng/ml): inhibited

CC(C)[C@H](NC(=O)CNC(=O)[C@@H](N)CCC(N)=O)C(=O)O [QGV] (H-Gln-Gly-Val-OH)
TLR-4 mediated signalling induced by LPS, PKB phosphorylation status [1, 10]: already display a modulation | TLR-4 mediated signalling induced by LPS, PKB phosphorylation status ([1]; peptide at 20 ng/ml): at least initial, inhibition | p38 MAPK phosphorylation [6]: already modulated

NC(=O)CC[C@H](N)C(=O)NCC(=O)O [QG] (H-Gln-Gly-OH)
p38 MAPK phosphorylation [6]: already modulated | TLR-4 mediated signalling induced by LPS, p38 MAPK phosphorylation status [6]: slight upregulation
